Earlier results, collected in patent US8697043B1, “Odor suppression of volatile organic analgesic compounds and method of use” (Chattem, Inc., priority 2013, dated 2014).

Experiments:
[1] = at 25° C.

Row | Structure (SMILES) | Solubility in water | Vapor pressure [1]
1 | CC1CCC(C(C)C)C(O)C1 (centres unmarked) [Menthol] | neither menthol nor camphor are significantly soluble in water | 8.5 kPa
2 | CC12CCC(CC1=O)C2(C)C (centres unmarked) [camphor] | neither menthol nor camphor are significantly soluble in water | 86.7 kPa
3 | CCO [ethanol] |  | 5.9 kPa
